Values of other authors, collected in the PKSmart pharmacokinetics tables (Seal et al. 2025).
Where a SMILES comes first, the peptide text is derived from it. Bridges are numbered along the chain shown (N, C = ends). [ ]: non-standard residue; d: D form. Mpa = O=C(O)CCS

Assay: Lombardo, Berellini, Obach 2018, Drug Metab Dispos 46:1466, doi 10.1124/dmd.118.082966
Conditions: human; for MRT / Vd / clearance / half-life: in vivo, iv; for fraction unbound: plasma

In the case of `CC[C@H](CC[C@@H](C)[C@H]1CC[C@H]2[C@@H]3CC=C4C[C@@H](O)CC[C@]4(C)[C@H]3CC[C@]12C)C(C)C`, the MRT is given as 250 h, the Vd is given as 0.3 L/kg and the clearance is given as 0.02 mL/min/kg. The half-life was 372 h.
For `CCC(C(N)=O)N1CCCC1=O` (stereo not given), the MRT is listed as 11.2 h, the Vd is listed as 0.6 L/kg and the clearance is listed as 0.9 mL/min/kg. The half-life was 8.23 h and the fraction unbound was 0.9.
For `COC(=O)NC(C(=O)N1CCC[C@H]1c1ncc(-c2ccc(-c3ccc(-c4cnc([C@@H]5CCCN5C(=O)C(NC(=O)OC)C(C)C)[nH]4)cc3)cc2)[nH]1)C(C)C` (stereo not given in full), the MRT is listed as 11.2 h, the Vd is listed as 0.67 L/kg and the clearance is listed as 1 mL/min/kg. For the same compound, the half-life was 13.5 h and the fraction unbound was 0.01.
For `CN(C)CCN1C(=O)c2cccc3cc([N+](=O)[O-])cc(c23)C1=O`, the MRT is listed as 5.6 h, the Vd is listed as 11.3 L/kg and the clearance is listed as 34.6 mL/min/kg. For the same compound, the half-life was 28.7 h.
In the case of `CC(C)(S)C(N)C(=O)O` (stereo not given), the MRT is given as 1.97 h, the Vd is given as 1.26 L/kg and the clearance is given as 10.7 mL/min/kg. For the same compound, the half-life was 3.04 h and the fraction unbound was 0.12.
In the case of `CCCCC(C)(C)[C@@H](O)/C=C\[C@@H]1[C@H](C/C=C/CCCC(=O)O)[C@@H](Cl)C[C@@H]1O`, the MRT is listed as 0.2 h, the Vd is listed as 0.16 L/kg and the clearance is listed as 13.2 mL/min/kg. For the same compound, the half-life was 0.8 h.
In the case of `CC(C=Cc1c(C)c(O)c2ccccc2c1O)=CCC[C@H](C)CCC[C@H](C)CCCC(C)C`, the MRT is listed as 3.3 h, the Vd is listed as 0.32 L/kg and the clearance is listed as 1.6 mL/min/kg. For the same compound, the half-life was 7.3 h.
In the case of `CN(C)C(=O)Oc1cc(OC(=O)N(C)C)cc(C(O)CNC(C)(C)C)c1` (stereo not given), the MRT is given as 1.4 h, the Vd is given as 1.6 L/kg and the clearance is given as 18 mL/min/kg. For the same compound, the half-life was 2.6 h.
For `NC(C(=O)NC1C(=O)N2C(C(=O)O)=C(CSc3c[nH]nn3)CS[C@H]12)c1ccc(O)cc1` (stereo not given in full), the MRT is given as 1.1 h, the Vd is given as 0.22 L/kg and the clearance is given as 3.3 mL/min/kg. The half-life was 1.2 h.
For `CCOC(=O)C1=C[C@]2(CC)CCCN3CCc4c(n1c1ccccc41)[C@@H]32`, the MRT is listed as 5.68 h, the Vd is listed as 2.08 L/kg and the clearance is listed as 6.1 mL/min/kg. The half-life was 4.83 h and the fraction unbound was 0.02.
In the case of `N=C(N)NCCCC1NC(=O)CCSSCC(C(N)=O)NC(=O)C2CCCN2C(=O)C(Cc2c[nH]c3ccccc23)NC(=O)C(CC(=O)O)NC(=O)CNC1=O` (stereo not given) ([Mpa]RGDWPC-NH2; disulfide 1-7; configuration not given here), the MRT is listed as 2.45 h, the Vd is listed as 0.42 L/kg and the clearance is listed as 2.88 mL/min/kg. The half-life was 2.12 h.
For `O=C(CCCN1CC=C(n2c(=O)[nH]c3ccccc32)CC1)c1ccc(F)cc1`, the MRT is given as 2.73 h, the Vd is given as 1.41 L/kg and the clearance is given as 8.92 mL/min/kg. For the same compound, the half-life was 1.9 h.
For `CN(C)CCC(c1ccc(Cl)cc1)c1ccccn1` (stereo not given), the MRT is listed as 22 h, the Vd is listed as 3.3 L/kg and the clearance is listed as 2.5 mL/min/kg.
In the case of `O=c1[nH]c(O)cn1/N=C/c1ccc(-c2ccc([N+](=O)[O-])cc2)o1`, the MRT is listed as 14 h, the Vd is listed as 0.37 L/kg and the clearance is listed as 0.43 mL/min/kg. The half-life was 10 h.
For `COc1ccc(/C=C\c2cc(OC)c(OC)c(OC)c2)cc1OP(=O)(O)O`, the MRT is given as 0.3 h, the Vd is given as 0.11 L/kg and the clearance is given as 5.86 mL/min/kg. For the same compound, the half-life was 0.47 h and the fraction unbound was 0.23.
In the case of `COc1cc(OC)c(/C=C/S(=O)(=O)Cc2ccc(OC)c(NCC(=O)O)c2)c(OC)c1`, the MRT is given as 1.2 h, the Vd is given as 0.11 L/kg and the clearance is given as 1.51 mL/min/kg. The half-life was 0.95 h.
For `Cc1cc(-n2cccc2)c(S(C)(=O)=O)cc1C(=O)NC(=N)N`, the MRT is listed as 2.3 h, the Vd is listed as 1.1 L/kg and the clearance is listed as 8.2 mL/min/kg. The half-life was 2.2 h.
For `CCOC(=O)C(CCc1ccccc1)NC(C)C(=O)N1C(C(=O)O)C[C@H]2CCCC[C@H]21` (stereo not given in full), the fraction unbound is given as 0.17.
In the case of `CCC(C)(C)NCC(O)COc1ccccc1C(=O)CCc1ccccc1` (stereo not given), the MRT is listed as 1.9 h, the Vd is listed as 1.2 L/kg and the clearance is listed as 11 mL/min/kg. The half-life was 1.5 h and the fraction unbound was 0.017.
In the case of `CNC1=Nc2ccc(Cl)cc2C(c2ccccc2)=[N+](O)C1`, the MRT is given as 11 h, the Vd is given as 0.25 L/kg and the half-life is given as 8.3 h.
For `Cc1onc(-c2c(Cl)cccc2Cl)c1C(=O)NC1C(=O)N2C(C(=O)O)C(C)(C)S[C@H]12` (stereo not given in full), the MRT is given as 0.92 h, the Vd is given as 0.11 L/kg and the clearance is given as 2 mL/min/kg. For the same compound, the half-life was 0.88 h.
In the case of `O=C1c2c(c3c4ccc(O)cc4n([C@@H]4O[C@H](CO)[C@@H](O)[C@H](O)[C@H]4O)c3c3[nH]c4cc(O)ccc4c23)C(=O)N1NC(CO)CO`, the MRT is given as 0.95 h, the Vd is given as 1.45 L/kg and the clearance is given as 25.3 mL/min/kg. For the same compound, the half-life was 4.01 h.
For `CN(C)[C@@H]1C(O)=C(C(N)=O)C(=O)[C@@]2(O)C(O)=C3C(=O)c4c(O)ccc(Cl)c4[C@@H](O)[C@H]3C[C@@H]12`, the MRT is given as 17 h, the Vd is given as 1.3 L/kg and the clearance is given as 1.1 mL/min/kg. The half-life was 12 h and the fraction unbound was 0.59.
In the case of `N#Cc1ccc(Cn2cncc2CN2CCN(c3cccc(Cl)c3)C(=O)C2)cc1`, the MRT is listed as 4.2 h, the Vd is listed as 0.8 L/kg and the clearance is listed as 3.2 mL/min/kg. The half-life was 2.6 h.
In the case of `CN(C)CCCN1c2ccccc2CCc2ccccc21`, the fraction unbound is listed as 0.075.
For `C#CCC(Cc1cnc2nc(N)nc(N)c2n1)c1ccc(C(=O)NC(CCC(=O)O)C(=O)O)cc1` (stereo not given), the MRT is listed as 3.7 h, the Vd is listed as 1.01 L/kg and the clearance is listed as 4.35 mL/min/kg. For the same compound, the half-life was 15 h and the fraction unbound was 0.33.
In the case of `C[C@H]1CCc2c(N3CCC(O)CC3)c(F)cc3c(=O)c(C(=O)O)cn1c23`, the MRT is given as 7.87 h, the Vd is given as 0.25 L/kg and the clearance is given as 0.54 mL/min/kg. The half-life was 6.04 h.
In the case of `NCCC(O)C(=O)N[C@@H]1C[C@H](N)[C@@H](O[C@H]2O[C@H](CN)CC[C@H]2N)[C@H](O)[C@H]1O[C@H]1O[C@H](CO)[C@@H](O)[C@H](N)[C@H]1O` (stereo not given in full), the MRT is given as 2.73 h, the Vd is given as 0.21 L/kg and the clearance is given as 1.28 mL/min/kg. For the same compound, the half-life was 2.46 h.
For `Cc1nnc(SCC2=C(C(=O)O)N3C(=O)C(NC(=O)Cn4cc(Cl)c(=O)c(Cl)c4)[C@H]3SC2)s1` (stereo not given in full), the MRT is given as 2.3 h, the Vd is given as 0.13 L/kg and the clearance is given as 0.95 mL/min/kg. The half-life was 1.91 h.
For `CC(C)COC[C@@H](CN(Cc1ccccc1)c1ccccc1)N1CCCC1`, the MRT is given as 19.3 h, the Vd is given as 10.1 L/kg and the clearance is given as 8.7 mL/min/kg. The half-life was 14.9 h and the fraction unbound was 0.001.
In the case of `c1ccc(C2(c3ccccc3)CC2C2=NCCN2)cc1` (stereo not given), the MRT is listed as 7.8 h, the Vd is listed as 4.1 L/kg and the clearance is listed as 8.6 mL/min/kg. The half-life was 7.3 h.
For `CC(=O)Nc1c(I)c(NC(C)=O)c(I)c(C(=O)O)c1I`, the MRT is given as 2.6 h, the clearance is given as 1.7 mL/min/kg and the fraction unbound is given as 1.
For `O=C(O)c1cc(/N=N/c2ccc(S(=O)(=O)Nc3ccccn3)cc2)ccc1O`, the MRT is listed as 6.8 h, the Vd is listed as 0.11 L/kg and the clearance is listed as 0.26 mL/min/kg. For the same compound, the half-life was 7.6 h and the fraction unbound was 0.004.
In the case of `CC(=O)NCCCS(=O)(=O)O`, the MRT is given as 1.54 h, the Vd is given as 0.3 L/kg and the clearance is given as 3.75 mL/min/kg. The half-life was 3.2 h and the fraction unbound was 1.
In the case of `Nc1nc2ccc(OC(F)(F)F)cc2s1`, the MRT is given as 5.2 h, the Vd is given as 3.5 L/kg and the clearance is given as 11.3 mL/min/kg. The fraction unbound was 0.04.
In the case of `COc1ccccc1N1CCN(C[C@@H](O)COc2cccc3ccccc23)CC1`, the clearance is given as 11 mL/min/kg, the half-life is given as 3.3 h and the fraction unbound is given as 0.008.
